Measured values: ChEMBL document CHEMBL1201862, “PubChem BioAssay data set” (2004)
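Assay format: 96-well plates, 48-hour exposure. Abbreviation: GI50, concentration required for 50% inhibition of growth.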 Activity calls are given as the source filed them. No stated cut-off is given here; in the data, active = GI50 up to about 1.1 µM and inactive = higher.

What was measured:
Assay in all cases: NCI-60 cell line screen, 48 h
[1] = test system: NCI-H522
[2] = test system: NCI-H226
[3] = test system: OVCAR-8
[4] = test system: Malme-3M
[5] = test system: MDA-MB-435
[6] = test system: UACC-62
[7] = test system: SNB-19
[8] = test system: U-251
[9] = test system: A549
[10] = test system: SK-OV-3
[11] = test system: BT-549
[12] = test system: OVCAR-3
[13] = test system: COLO 205
[14] = test system: SF-268
[15] = test system: Hs-578T
[16] = test system: SNB-75
[17] = test system: NCI-H460
[18] = test system: MOLT-4
[19] = test system: SF-295

Measured: GI50

Nc1ncnc2c1ncc(=O)n2C1CC(O)C(CO)O1 (stereo unspecified)
inactive: [1] > 100 µM | [2] > 100 µM | [3] > 100 µM | [4] > 100 µM | [5] > 100 µM | [6] > 100 µM | [7] > 100 µM | [8] > 100 µM | [9] > 100 µM | [10] > 100 µM | [11] > 100 µM | [12] > 100 µM | [13] > 100 µM | [14] > 100 µM | [15] > 100 µM | [16] > 100 µM | [17] > 100 µM | [18] > 100 µM | [19] 65.6 µM

C=C(C)[C@@H]1CC[C@]2(C(=O)OC3OC(COC4OC(CO)C(OC5OC(C)C(O)C(O)C5O)C(O)C4O)C(O)C(O)C3O)CC[C@]3(C)[C@H](CC[C@@H]4[C@@]5(C)CC[C@H](O)[C@@](C)(CO)[C@@H]5CC[C@]43C)[C@@H]12 (stereo partly specified)
inactive: [1] 2.66 µM | [2] 3.16 µM | [3] 3.97 µM | [4] 3.78 µM | [5] 3.51 µM | [6] 1.99 µM | [7] 2.72 µM | [8] 1.64 µM | [10] 3.24 µM | [11] 3.06 µM | [12] 1.84 µM | [13] 1.63 µM | [14] 2.93 µM | [15] 3.64 µM | [16] 4.39 µM | [17] 1.37 µM | [19] 1.27 µM
active: [9] 0.986 µM | [18] 0.39 µM

N#CSc1ccc(S(N)(=O)=O)cc1
active: [18] 1 µM
inactive: [1] 10.7 µM | [2] > 100 µM | [3] 44.8 µM | [4] 83.6 µM | [5] 33.3 µM | [6] 70 µM | [7] > 100 µM | [8] 17.4 µM | [9] > 100 µM | [10] > 100 µM | [11] > 100 µM | [12] 52.2 µM | [13] 71.1 µM | [14] > 100 µM | [15] > 100 µM | [16] > 100 µM | [17] > 100 µM | [19] > 100 µM

COC(=O)[C@]12CCC(C)(C)C[C@H]1[C@H]1C(=O)C=C3[C@@]4(C)C=C(C#N)C(=O)C(C)(C)[C@@H]4CC[C@@]3(C)[C@]1(C)CC2 [BARDOXOLONE METHYL]
active: [1] 0.0728 µM | [2] 0.0346 µM | [3] 0.0199 µM | [4] 0.0667 µM | [5] 0.0164 µM | [6] 0.0145 µM | [7] 0.0408 µM | [8] 0.0232 µM | [9] 0.0294 µM | [10] 0.126 µM | [11] 0.0339 µM | [12] 0.0103 µM | [13] 0.0199 µM | [14] 0.0238 µM | [15] 0.0321 µM | [16] 0.139 µM | [17] 0.0205 µM | [18] < 0.01 µM | [19] 0.0289 µM

CC1=NNC(=O)C1C(CC(=O)c1c[nH]c2ccccc12)C(=O)O (stereo unspecified)
inactive: [1] 72.1 µM | [2] > 100 µM | [3] > 100 µM | [4] > 100 µM | [5] 68.5 µM | [6] > 100 µM | [7] > 100 µM | [8] > 100 µM | [9] > 100 µM | [10] > 100 µM | [11] > 100 µM | [12] > 100 µM | [13] 64.7 µM | [14] > 100 µM | [15] > 100 µM | [16] > 100 µM | [17] > 100 µM | [18] 49 µM | [19] > 100 µM

O=C1Nc2ccc(Br)cc2/C1=N/c1ccc2c(c1)OCO2
inactive: [1] 19.1 µM | [2] 24.3 µM | [3] 32.5 µM | [4] 18.7 µM | [5] 9.35 µM | [6] 15.7 µM | [7] 74.5 µM | [8] 12.7 µM | [9] 46.8 µM | [10] 31.8 µM | [11] 19.8 µM | [12] 22.1 µM | [13] 16.9 µM | [14] 35.2 µM | [15] 30.5 µM | [16] 31.6 µM | [17] 22.5 µM | [18] 16.6 µM | [19] 24.8 µM

NC(=O)CNC(=O)[C@@H]1C[C@@H](OCCC(=O)O)CN1C(=O)OCc1ccccc1
inactive: [1] > 100 µM | [2] > 100 µM | [3] > 10 µM | [4] > 100 µM | [5] > 100 µM | [6] > 100 µM | [7] > 100 µM | [8] > 100 µM | [9] > 100 µM | [10] > 100 µM | [11] > 100 µM | [12] > 100 µM | [13] > 100 µM | [14] > 100 µM | [15] > 100 µM | [16] > 100 µM | [17] > 100 µM | [18] > 100 µM | [19] > 100 µM

N#C[BH2-][n+]1ccc(C(=O)NNCC(F)(F)F)cc1
inactive: [1] > 100 µM | [2] > 100 µM | [3] > 100 µM | [4] > 100 µM | [5] > 100 µM | [6] > 100 µM | [7] > 100 µM | [8] > 100 µM | [9] > 100 µM | [10] > 100 µM | [11] > 100 µM | [12] > 100 µM | [13] > 100 µM | [14] > 100 µM | [15] > 100 µM | [16] > 100 µM | [17] > 100 µM | [18] > 100 µM | [19] > 100 µM

C[C@]12CC[C@H]3[C@@H](CC=C4C[C@@H](N5CCCC5)CC[C@@]43C)[C@@H]1C[C@H](N1CCOCC1)[C@@H]2O
inactive: [1] > 100 µM | [2] > 100 µM | [3] > 100 µM | [4] > 100 µM | [5] 61.2 µM | [6] > 100 µM | [7] > 100 µM | [8] > 100 µM | [9] > 100 µM | [10] > 100 µM | [11] > 100 µM | [12] > 100 µM | [13] > 100 µM | [14] > 100 µM | [15] > 100 µM | [16] > 100 µM | [17] > 100 µM | [18] > 100 µM | [19] > 100 µM

COC(=O)C(Cc1ccc2c(c1)CCCC2)Cc1cc2c(cc1C(O)OC)CCC2 (stereo unspecified)
inactive: [1] 50.1 µM | [2] > 100 µM | [3] > 100 µM | [4] 38.1 µM | [5] 38.2 µM | [6] > 100 µM | [7] > 100 µM | [8] 49.4 µM | [9] 41.5 µM | [10] > 100 µM | [11] > 100 µM | [12] 89.7 µM | [13] 37.7 µM | [14] 49.9 µM | [15] 57.9 µM | [16] > 100 µM | [17] 35.8 µM | [18] 58.9 µM | [19] 61.5 µM

COc1cccc([C@H]2CC(=O)c3cc4c(cc3N2)OCO4)c1
active: [1] 0.238 µM | [2] 0.263 µM | [3] 0.401 µM | [4] 0.671 µM | [5] 0.0743 µM | [6] 0.406 µM | [7] 0.312 µM | [8] 0.393 µM | [9] 0.296 µM | [10] 0.419 µM | [12] 0.598 µM | [13] 0.296 µM | [14] 0.646 µM | [15] 0.216 µM | [17] 0.411 µM | [18] 0.938 µM | [19] 0.296 µM
inactive: [11] 8.59 µM | [16] > 100 µM

NC(=O)c1nnc2cc(F)ccc2c1N
inactive: [1] 46.3 µM | [2] 58.2 µM | [3] > 100 µM | [4] > 100 µM | [5] > 100 µM | [6] 97.3 µM | [7] > 100 µM | [8] > 100 µM | [9] > 100 µM | [10] 85.5 µM | [11] 84.9 µM | [12] > 100 µM | [13] > 100 µM | [14] > 100 µM | [15] > 100 µM | [16] > 100 µM | [17] > 100 µM | [18] > 100 µM | [19] > 100 µM

CC(=O)OC1COC(n2c(-c3ccc(Cl)cc3)cc(-c3ccccc3)c(C#N)c2=S)C(OC(C)=O)C1OC(C)=O (stereo unspecified)
inactive: [1] 40.5 µM | [2] 16.3 µM | [3] 5.06 µM | [4] 49.9 µM | [5] 7.19 µM | [6] 19.1 µM | [7] 31 µM | [8] 3.78 µM | [9] 13.4 µM | [10] 28.2 µM | [11] 2.06 µM | [12] 6.38 µM | [13] 18.3 µM | [14] 9.44 µM | [16] 15.7 µM | [17] 19.1 µM | [18] 50.1 µM | [19] 14.7 µM
active: [15] 0.552 µM

COc1ccc(CC2c3cc(OC)c(OC)cc3CC[N+]2(C)C)cc1OC (stereo unspecified)
inactive: [1] > 100 µM | [2] > 100 µM | [3] > 100 µM | [4] > 100 µM | [5] > 100 µM | [6] > 100 µM | [7] > 100 µM | [8] > 100 µM | [9] > 100 µM | [10] > 100 µM | [11] > 100 µM | [12] > 100 µM | [13] > 100 µM | [14] > 100 µM | [15] > 100 µM | [16] > 100 µM | [17] > 100 µM | [18] > 100 µM | [19] > 100 µM
